Assay results from US10683292B2, “Purine and 3-deazapurine analogues as choline kinase inhibitors” (NERVIANO MEDICAL SCIENCES S.R.L., priority 2016, dated 2020).
Where a name gives a salt, the structure may show the parent alone.

What was measured:
[1] = target: T1, Δ49N-hChoKα (Homo sapiens, UniProt P35790); test: Biochemical kinase inhibition assay (Kinase-Glo Luminescent Kinase Assay) on Δ49N-hChoKα; conditions: ATP 5 μM, choline 5 μM, 60 minutes at rt; read-out: IC50 ChoKα
T1 construct: cDNA fragment 362-1534, corresponding to aminoacids 50-457; GST (N, cleaved yes); Prescission Protease recognition site (N, cleaved yes); made in house; host or cells: Escherichia coli BL21pLysS (DE3)
T1 sequence (P35790 50-457, stated change not applied): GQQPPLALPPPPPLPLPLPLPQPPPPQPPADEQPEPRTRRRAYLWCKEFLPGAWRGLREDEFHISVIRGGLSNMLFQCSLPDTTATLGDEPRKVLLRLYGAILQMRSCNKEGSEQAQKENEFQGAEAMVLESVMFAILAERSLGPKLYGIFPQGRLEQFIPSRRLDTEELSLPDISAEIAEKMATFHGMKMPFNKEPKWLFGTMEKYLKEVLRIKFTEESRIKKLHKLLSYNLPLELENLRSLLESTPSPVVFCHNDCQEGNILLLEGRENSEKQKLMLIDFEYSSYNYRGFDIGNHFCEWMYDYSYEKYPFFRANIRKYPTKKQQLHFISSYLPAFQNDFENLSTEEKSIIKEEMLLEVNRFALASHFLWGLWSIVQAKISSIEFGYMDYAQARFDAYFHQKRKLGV

[2] = target: T2, hChoKβ FL (Homo sapiens, UniProt Q9Y259); test: Biochemical kinase inhibition assay (Kinase-Glo Luminescent Kinase Assay) on hChoKβ FL; conditions: ATP 5 μM, choline 20 μM, 60 minutes at rt; read-out: IC50 ChoKβ
T2 construct: hChoKβ full length (FL), corresponding to aminoacids 2-395; GST (N, cleaved yes); Prescission Protease recognition site (N, cleaved yes); made in house; host or cells: Escherichia coli BL21pLysS (DE3)
T2 sequence (Q9Y259 2-395): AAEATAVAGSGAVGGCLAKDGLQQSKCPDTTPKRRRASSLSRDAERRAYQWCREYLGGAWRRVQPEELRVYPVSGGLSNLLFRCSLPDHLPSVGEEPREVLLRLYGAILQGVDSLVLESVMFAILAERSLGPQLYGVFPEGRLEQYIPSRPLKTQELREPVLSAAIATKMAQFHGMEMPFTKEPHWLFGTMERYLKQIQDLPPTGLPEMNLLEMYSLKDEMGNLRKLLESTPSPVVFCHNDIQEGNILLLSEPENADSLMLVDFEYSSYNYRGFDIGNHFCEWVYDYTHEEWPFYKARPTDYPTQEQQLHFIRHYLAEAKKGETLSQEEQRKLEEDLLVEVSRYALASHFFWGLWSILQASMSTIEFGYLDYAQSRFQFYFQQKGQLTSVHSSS
Method: The biochemical activity of compounds against Δ49N-ChoKα and ChoKβ FL were determined using the Kinase-Glo™ Luminescent Kinase Assay (Promega cat. V6711).
Compounds were 3-fold serially diluted from 10 to 0.0005 μM, then incubated for 60 minutes at rt in the presence of ATP 5 μM, choline (5 μM for ChoKα and 20 μM for ChoKβ) and enzyme in a final volume of 19 μL of kinase buffer (50 mM Hepes pH 7.5, 10 mM MgCl2, 1 mM DTT, 3 μM Na3VO4 and 0.2 mg/mL BSA). The final concentration of DMSO was 1%.
At the end of the incubation, an amount of 19 μL of KinaseGlo Reagent was added to each well to stop the reaction and after 30 minutes the luminescence signal was measured using ViewLux reader (Perkin Elmer).
The data per each molecule are analyzed by an internally customized version of the SW package “Assay Explorer” which provides sigmoidal fittings of the ten-dilution curves for IC50 determination using a 4 parameter logistic equation: y=bottom+(top−bottom)/(1+10^((log IC50−x)*slope)) where x is the logarithm of the inhibitor concentration, y is the response; y starts at bottom and goes to top with a sigmoid shape.

Row | Compound | IC50 [1] [nM] | IC50 [2] [nM]
1 | Cc1csc(NC(=O)[C@H]2CC[C@@H](n3cnc4c(N)nc(-c5cccc(C(=O)Nc6ccc(CN7CCC(N(C)C)CC7)cc6)c5)nc43)CC2)n1 [cpd 85, 3-(6-amino-9-{cis-4-[(4-methyl-1,3-thiazol-2-yl)carbamoyl]cyclohexyl}-9H-purin-2-yl)-N-(4-{[4-(dimethylamino)piperidin-1-yl]methyl}phenyl)benzamide bis-trifluoroacetate] | 11 | > 10000
2 | Nc1nc(Cl)nc2c1ncn2[C@H]1CC[C@@H](C(=O)Nc2nc(CC(=O)N3CCC(N4CCCCC4)CC3)cs2)CC1 [cpd 86, cis-4-(6-amino-2-chloro-9H-purin-9-yl)-N-{4-[2-(1,4′-bipiperidin-1′-yl)-2-oxoethyl]-1,3-thiazol-2-yl}cyclohexanecarboxamide] | 52 | > 10000
3 | COc1cccc(NC(=O)[C@H]2CC[C@@H](n3cnc4c(N)nc(C5CC5)nc43)CC2)c1 [cpd 87, cis-4-(6-amino-2-cyclopropyl-9H-purin-9-yl)-N-(3-methoxyphenyl)cyclohexanecarboxamide] | 974 | > 10000
4 | COC(=O)[C@H]1CC[C@@H](n2cnc3c(N)nc(Cl)nc32)CC1 [cpd 88, methyl cis-4-(6-amino-2-chloro-9H-purin-9-yl)cyclohexanecarboxylate] | 524 | > 10000
5 | CS(=O)(=O)c1ccc2nc(NC(=O)[C@H]3CC[C@@H](n4cnc5c(N)nc(Cl)nc54)CC3)sc2c1 [cpd 89, cis-4-(6-amino-2-chloro-9H-purin-9-yl)-N-[6-(methylsulfonyl)-1,3-benzothiazol-2-yl]cyclohexanecarboxamide] | 64 | 4160
6 | Nc1nc(Cl)nc2c1ncn2[C@H]1CC[C@@H](C(=O)Nc2nc3ccc(Cl)cc3s2)CC1 [cpd 90, cis-4-(6-amino-2-chloro-9H-purin-9-yl)-N-(6-chloro-1,3-benzothiazol-2-yl)cyclohexanecarboxamide] | 28 | > 10000
7 | Cc1cc2nc(NC(=O)[C@H]3CC[C@@H](n4cnc5c(N)nc(Cl)nc54)CC3)sc2cc1C [cpd 93, cis-4-(6-amino-2-chloro-9H-purin-9-yl)-N-(5,6-dimethyl-1,3-benzothiazol-2-yl)cyclohexanecarboxamide] | 48 | 6080
8 | Nc1nc(Cl)nc2c1ncn2[C@H]1CC[C@@H](C(=O)Nc2nc3cc(Cl)ccc3o2)CC1 [cpd 94, cis-4-(6-amino-2-chloro-9H-purin-9-yl)-N-(5-chloro-1,3-benzoxazol-2-yl)cyclohexanecarboxamide] | 178 | 5620
9 | Cn1c(NC(=O)[C@H]2CC[C@@H](n3cnc4c(N)nc(Cl)nc43)CC2)nc2ccccc21 [cpd 95, cis-4-(6-amino-2-chloro-9H-purin-9-yl)-N-(1-methyl-1H-benzimidazol-2-yl)cyclohexanecarboxamide] | 268 | 7120
10 | Cc1csc(NC(=O)[C@H]2CC[C@@H](n3cnc4c(N)nc(-c5cccc(C(N)=O)c5)nc43)CC2)n1 [cpd 96, 3-(6-amino-9-{cis-4-[(4-methyl-1,3-thiazol-2-yl)carbamoyl]cyclohexyl}-9H-purin-2-yl)benzamide] | 274 | > 10000
11 | Cc1csc(NC(=O)[C@H]2CC[C@H](n3cnc4c(N)nc(-c5cccc(C(N)=O)c5)nc43)CC2)n1 [cpd 97, 3-(6-amino-9-{trans-4-[(4-methyl-1,3-thiazol-2-yl)carbamoyl]cyclohexyl}-9H-purin-2-yl)benzamide] | 478 | > 10000
12 | Cc1csc(NC(=O)[C@H]2CC[C@@H](n3cnc4c(N)nc(C#C[Si](C)(C)C)nc43)CC2)n1 [cpd 98, cis-4-{6-amino-2-[(trimethylsilyl)ethynyl]-9H-purin-9-yl}-N-(4-methyl-1,3-thiazol-2-yl)cyclohexanecarboxamide] | 120 | > 10000
13 | Cc1csc(NC(=O)[C@H]2CC[C@@H](n3cnc4c(N)nc(-c5cccc(OCc6ccccc6)c5)nc43)CC2)n1 [cpd 100, cis-4-{6-amino-2-[3-(benzyloxy)phenyl]-9H-purin-9-yl}-N-(4-methyl-1,3-thiazol-2-yl)cyclohexanecarboxamide] | 248 | > 10000

Further lines, results first:

Row | IC50 [1] [nM] | IC50 [2] [nM] | Compound
14 | 88 | > 10000 | Cc1csc(NC(=O)[C@H]2CC[C@@H](n3cnc4c(N)nc(C#N)nc43)CC2)n1 [cpd 102, cis-4-(6-amino-2-cyano-9H-purin-9-yl)-N-(4-methyl-1,3-thiazol-2-yl)cyclohexanecarboxamide]
15 | 176 | > 10000 | Cc1csc(NC(=O)[C@H]2CC[C@@H](n3cnc4c(N)nc(-c5cccc(O)c5)nc43)CC2)n1 [cpd 103, cis-4-[6-amino-2-(3-hydroxyphenyl)-9H-purin-9-yl]-N-(4-methyl-1,3-thiazol-2-yl)cyclohexanecarboxamide]
16 | 120 | > 10000 | Cc1csc(NC(=O)[C@H]2CC[C@@H](n3cnc4c(N)nc(-c5cc[nH]n5)nc43)CC2)n1 [cpd 112, cis-4-[6-amino-2-(1H-pyrazol-3-yl)-9H-purin-9-yl]-N-(4-methyl-1,3-thiazol-2-yl)cyclohexanecarboxamide]
17 | 613 | > 10000 | Cc1csc(NC(=O)[C@H]2CC[C@H](n3cnc4c(N)nc(-c5cc[nH]n5)nc43)CC2)n1 [cpd 113, trans-4-[6-amino-2-(1H-pyrazol-3-yl)-9H-purin-9-yl]-N-(4-methyl-1,3-thiazol-2-yl)cyclohexanecarboxamide]
18 | 43 | > 10000 | COc1cccc2sc(NC(=O)[C@H]3CC[C@@H](n4cnc5c(N)nc(I)nc54)CC3)nc12 [cpd 116, cis-4-(6-amino-2-iodo-9H-purin-9-yl)-N-(4-methoxy-1,3-benzothiazol-2-yl)cyclohexanecarboxamide]
19 | 21 | 7700 | C#Cc1nc(N)c2ncn([C@H]3CC[C@@H](C(=O)Nc4nc5c(OC)cccc5s4)CC3)c2n1 [cpd 119, cis-4-(6-amino-2-ethynyl-9H-purin-9-yl)-N-(4-methoxy-1,3-benzothiazol-2-yl)cyclohexanecarboxamide]
20 | 40 | > 10000 | Nc1nc(Cl)nc2c1ncn2[C@H]1CC[C@@H](C(=O)Nc2nc(CN3CCC(N)CC3)cs2)CC1 [cpd 120, cis-4-(6-amino-2-chloro-9H-purin-9-yl)-N-{4-[(4-aminopiperidin-1-yl)methyl]-1,3-thiazol-2-yl}cyclohexanecarboxamide]
21 | 31 | > 10000 | COc1cccc2sc(NC(=O)[C@H]3CC[C@@H](n4cnc5c(N)nc(F)nc54)CC3)nc12 [cpd 126, cis-4-(6-amino-2-fluoro-9H-purin-9-yl)-N-(4-methoxy-1,3-benzothiazol-2-yl)cyclohexanecarboxamide]
22 | 45 | > 10000 | Nc1nc(F)nc2c1ncn2[C@H]1CC[C@@H](C(=O)Nc2nc3c(O)cccc3s2)CC1 [cpd 127, cis-4-(6-amino-2-fluoro-9H-purin-9-yl)-N-(4-hydroxy-1,3-benzothiazol-2-yl)cyclohexanecarboxamide]
23 | 38 | > 10000 | Nc1nc(F)nc2c1ncn2[C@H]1CC[C@@H](C(=O)Nc2nc3ccc(F)cc3s2)CC1 [cpd 128, cis-4-(6-amino-2-fluoro-9H-purin-9-yl)-N-(6-fluoro-1,3-benzothiazol-2-yl)cyclohexanecarboxamide]
24 | 416 | > 10000 | Cc1csc(NC(=O)[C@H]2CC[C@@H](n3cnc4c(N)nc(C(F)(F)F)nc43)CC2)n1 [cpd 129, cis-4-[6-amino-2-(trifluoromethyl)-9H-purin-9-yl]-N-(4-methyl-1,3-thiazol-2-yl)cyclohexanecarboxamide]
25 | 257 | > 10000 | Nc1nc(C(F)(F)F)nc2c1ncn2[C@H]1CC[C@@H](C(=O)Nc2nc3ccc(F)cc3s2)CC1 [cpd 132, cis-4-[6-amino-2-(trifluoromethyl)-9H-purin-9-yl]-N-(6-fluoro-1,3-benzothiazol-2-yl)cyclohexanecarboxamide]
26 | 97 | > 10000 | Nc1nc(Cl)nc2c1ncn2[C@H]1CC[C@@H](C(=O)Nc2nc3ccncc3s2)CC1 [cpd 138, cis-4-(6-amino-2-chloro-9H-purin-9-yl)-N-([1,3]thiazolo[5,4-c]pyridin-2-yl)cyclohexanecarboxamide hydrochloride]
27 | 514 | > 10000 | Nc1nc(Cl)nc2c1ncn2[C@H]1CC[C@@H](NC(=O)c2nc3ccccc3s2)CC1 [cpd 140, N-[cis-4-(6-amino-2-chloro-9H-purin-9-yl)cyclohexyl]-1,3-benzothiazole-2-carboxamide]
28 | 341 | > 10000 | COc1cccc(C(=O)N[C@H]2CC[C@@H](n3cnc4c(N)nc(Cl)nc43)CC2)c1 [cpd 144, N-[cis-4-(6-amino-2-chloro-9H-purin-9-yl)cyclohexyl]-3-methoxybenzamide]
29 | 73 | > 10000 | Cc1csc(NC(=O)[C@H]2CC[C@@H](n3cnc4c(N)nc(C(N)=O)nc43)CC2)n1 [cpd 146, 6-amino-9-{cis-4-[(4-methyl-1,3-thiazol-2-yl)carbamoyl]cyclohexyl}-9H-purine-2-carboxamide]
30 | 65 | 7040 | Nc1nc2ccc(OC(=O)[C@H]3CC[C@@H](n4cnc5c(N)nc(Cl)nc54)CC3)cc2s1 [cpd 159, 2-amino-1,3-benzothiazol-6-yl cis-4-(6-amino-2-chloro-9H-purin-9-yl)cyclohexanecarboxylate]
31 | 197 | > 10000 | Nc1nc2c(OC(=O)[C@H]3CC[C@@H](n4cnc5c(N)nc(F)nc54)CC3)cccc2s1 [cpd 160, 2-amino-1,3-benzothiazol-4-yl cis-4-(6-amino-2-fluoro-9H-purin-9-yl)cyclohexanecarboxylate]
